Test results: patent US4486602A, “Valienamine derivatives, their production and use” (Takeda Chemical Industries, Ltd., priority 1980, dated 1984)
Read-outs that look alike come from different tables or passages of the source.

Columns and labels:
Type in all cases: biochemical
[1] = biological target: T1, α-glucosidase (yeast, type I) (Saccharomyces cerevisiae, UniProt P53341); test: α-glucosidase inhibitory activity, p-nitrophenyl-α-D-glucopyranoside as substrate
T1 construct: purchased Sigma Chemicals, U.S.A
Protocol: The inhibitory activity of the compounds of this invention against α-glucosidase (yeast, type I, produced by Sigma Chemicals, U.S.A.), when p-nitrophenyl-α-D-glucopyranoside is used as a substrate, is determined by adding 0.5 ml of a solution of an inhibitor of this invention in 0.02M phosphate buffer (pH 6.8) and 0.25 ml of 0.01M p-nitrophenyl-α-D-glucopyranoside in the same buffer to 0.25 ml of a solution of α-glucosidase in the same buffer (0.005 mg/ml), allowing the reaction to proceed at 37° C. for 15 minutes, then adding 3 ml of 0.1M aqueous sodium carbonate solution to terminate the reaction, and measuring the absorbance of the reaction solution at 400 nm. The 50% inhibition concentration of the inhibitor is calculated from the inhibition rates (%) which are determined with inhibitory substance samples of three to five different concentrations.
(§1) When 0.05M maltose is used as a substrate, the inhibitory activity against maltase prepared from porcine intestinal mucosa is determined by measuring the amount of released D-glucose by use of glucose oxidase [Glucose B-Test Wako (a reagent for clinical diagnostic use for determining glucose, produced by Wako Pure Chemical Co. Japan)] to calculate the 50% inhibition concentration. The molar concentration required for 50% inhibition (IC50) of the α-glucosidase inhibitors represented by the formula [I], to inhibit activity of α-glucosidase (yeast), is shown in Table 1 and that to inhibit activity of maltase (porcine intestinal mucosa) is in Table 2.

[2] = biological target: maltase (porcine intestinal mucosa); test: inhibitory activity against maltase, 0.05M maltose as substrate; settings: Table 2, read-out: IC50 (molar concentration required for 50% inhibition)
Protocol: as §1

[3] = biological target: T2, saccharase (porcine intestinal mucosa) (Sus scrofa, UniProt P56729); test: inhibitory activity against saccharase
T2 construct: saccharase prepared from porcine intestinal mucosa; from tissue; host or cells: porcine intestinal mucosa
Protocol: The inhibitory activity against saccharase prepared from porcine intestinal mucosa is determined by a similar method to that against maltase in accordance with the method described in Acta. Chem. Scand., 12, 1997-2006 (1958).

α-glucoside hydrolase = test: suppression of α-glucoside hydrolase function (statement in words)
[4] = Table 1, α-glucosidase (yeast), pH 6.8, 37° C., 15 minutes, read-out: IC50 (molar concentration required for 50% inhibition)

T1 sequence (P53341 whole entry): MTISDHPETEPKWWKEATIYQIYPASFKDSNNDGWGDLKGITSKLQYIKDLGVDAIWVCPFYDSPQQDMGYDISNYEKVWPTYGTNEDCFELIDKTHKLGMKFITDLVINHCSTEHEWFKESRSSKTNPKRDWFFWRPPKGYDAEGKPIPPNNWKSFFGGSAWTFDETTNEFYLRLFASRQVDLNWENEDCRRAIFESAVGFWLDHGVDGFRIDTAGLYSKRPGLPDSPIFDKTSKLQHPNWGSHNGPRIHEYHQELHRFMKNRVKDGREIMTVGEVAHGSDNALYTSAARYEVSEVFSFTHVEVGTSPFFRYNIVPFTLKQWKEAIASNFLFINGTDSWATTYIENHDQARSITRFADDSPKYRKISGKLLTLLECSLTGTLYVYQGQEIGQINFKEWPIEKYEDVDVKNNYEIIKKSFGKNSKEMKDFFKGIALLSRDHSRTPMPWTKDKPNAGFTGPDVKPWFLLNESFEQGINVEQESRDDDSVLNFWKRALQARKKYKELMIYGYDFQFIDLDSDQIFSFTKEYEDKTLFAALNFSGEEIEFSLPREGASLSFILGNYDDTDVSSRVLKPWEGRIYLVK
T2 sequence (P56729 with tags, fused parts or gaps limits assumed): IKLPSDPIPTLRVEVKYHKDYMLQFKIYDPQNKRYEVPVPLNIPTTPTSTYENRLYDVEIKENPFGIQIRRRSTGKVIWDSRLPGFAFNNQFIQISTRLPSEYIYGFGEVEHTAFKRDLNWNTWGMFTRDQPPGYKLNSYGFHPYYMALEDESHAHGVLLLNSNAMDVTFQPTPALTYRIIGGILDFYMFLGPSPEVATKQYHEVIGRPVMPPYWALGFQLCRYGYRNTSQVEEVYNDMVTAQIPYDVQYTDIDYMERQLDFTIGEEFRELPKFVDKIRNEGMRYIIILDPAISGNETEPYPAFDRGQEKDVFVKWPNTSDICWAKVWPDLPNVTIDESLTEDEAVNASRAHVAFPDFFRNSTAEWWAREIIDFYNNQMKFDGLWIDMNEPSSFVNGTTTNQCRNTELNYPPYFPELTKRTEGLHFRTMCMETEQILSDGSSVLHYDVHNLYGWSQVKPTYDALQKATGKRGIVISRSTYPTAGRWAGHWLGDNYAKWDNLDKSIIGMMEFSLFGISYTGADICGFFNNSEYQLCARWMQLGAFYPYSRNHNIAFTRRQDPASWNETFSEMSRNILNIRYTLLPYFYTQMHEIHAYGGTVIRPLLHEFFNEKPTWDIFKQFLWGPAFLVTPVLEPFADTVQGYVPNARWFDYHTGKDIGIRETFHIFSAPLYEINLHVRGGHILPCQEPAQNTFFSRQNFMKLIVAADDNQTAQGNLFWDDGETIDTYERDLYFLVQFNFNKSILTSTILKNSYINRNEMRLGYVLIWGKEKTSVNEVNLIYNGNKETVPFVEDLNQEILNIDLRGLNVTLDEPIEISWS
T2 sequence (P56729 with tags, fused parts or gaps partner limits assumed): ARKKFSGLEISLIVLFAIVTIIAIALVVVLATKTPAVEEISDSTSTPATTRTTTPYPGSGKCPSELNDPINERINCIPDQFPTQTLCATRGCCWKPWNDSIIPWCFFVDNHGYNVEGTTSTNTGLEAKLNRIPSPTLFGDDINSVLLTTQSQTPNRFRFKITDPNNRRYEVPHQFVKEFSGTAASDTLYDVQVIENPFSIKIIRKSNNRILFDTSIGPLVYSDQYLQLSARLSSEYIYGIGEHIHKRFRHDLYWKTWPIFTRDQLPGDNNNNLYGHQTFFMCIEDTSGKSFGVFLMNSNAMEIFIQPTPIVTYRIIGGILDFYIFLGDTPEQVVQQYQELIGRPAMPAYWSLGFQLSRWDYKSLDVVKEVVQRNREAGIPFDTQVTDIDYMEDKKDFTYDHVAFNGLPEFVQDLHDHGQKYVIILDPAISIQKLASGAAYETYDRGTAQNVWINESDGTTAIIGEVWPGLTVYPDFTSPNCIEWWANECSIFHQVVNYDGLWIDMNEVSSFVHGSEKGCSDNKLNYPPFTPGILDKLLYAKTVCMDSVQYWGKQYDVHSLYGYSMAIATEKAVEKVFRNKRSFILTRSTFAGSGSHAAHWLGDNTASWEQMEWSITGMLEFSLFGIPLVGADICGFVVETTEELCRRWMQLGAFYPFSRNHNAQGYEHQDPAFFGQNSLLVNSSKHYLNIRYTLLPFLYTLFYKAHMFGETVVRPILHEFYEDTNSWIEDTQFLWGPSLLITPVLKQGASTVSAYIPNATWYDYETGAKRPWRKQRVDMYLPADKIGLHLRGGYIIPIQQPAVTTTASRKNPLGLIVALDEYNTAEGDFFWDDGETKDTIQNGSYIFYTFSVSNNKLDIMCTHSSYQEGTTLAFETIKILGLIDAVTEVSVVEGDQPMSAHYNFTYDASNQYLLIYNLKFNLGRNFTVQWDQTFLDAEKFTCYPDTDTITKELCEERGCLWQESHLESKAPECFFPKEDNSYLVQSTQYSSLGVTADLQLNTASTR

Structure (SMILES)	IC50 [1, 4] [µM]	IC50 [2] [µM]	other results
OCC1=C[C@H](NCc2ccccc2)[C@H](O)[C@@H](O)[C@@H]1O	9.2		
OCC1=C[C@H](NCc2cccs2)[C@H](O)[C@@H](O)[C@@H]1O	38		
OCC1=C[C@H](NCc2ccco2)[C@H](O)[C@@H](O)[C@@H]1O	150		
OCC1=C[C@H](NCc2cccnc2)[C@H](O)[C@@H](O)[C@@H]1O	56		
Cc1ccc(CN[C@H]2C=C(CO)[C@@H](O)[C@H](O)[C@H]2O)cc1	20		
COc1ccc(CN[C@H]2C=C(CO)[C@@H](O)[C@H](O)[C@H]2O)cc1	18		
O=C(O)c1ccc(CN[C@H]2C=C(CO)[C@@H](O)[C@H](O)[C@H]2O)cc1	150		
CC(N[C@H]1C=C(CO)[C@@H](O)[C@H](O)[C@H]1O)c1ccccc1 (some centres unmarked)	13		
CC(CN[C@H]1C=C(CO)[C@@H](O)[C@H](O)[C@H]1O)c1ccccc1 (some centres unmarked)	13		
OCC1=C[C@H](NCC=Cc2ccccc2)[C@H](O)[C@@H](O)[C@@H]1O	20		
OCC1=C[C@H](NCCCOc2ccccc2)[C@H](O)[C@@H](O)[C@@H]1O	1.1		
OCC1=C[C@H](NCCCCCc2ccccc2)[C@H](O)[C@@H](O)[C@@H]1O	0.75		
OCC1=C[C@H](NCC(c2ccccc2)c2ccccc2)[C@H](O)[C@@H](O)[C@@H]1O	0.038		
OCC1=C[C@H](NCC2CCCCC2)[C@H](O)[C@@H](O)[C@@H]1O	0.38		
CC(C)(C)c1cc(CN[C@H]2C=C(CO)[C@@H](O)[C@H](O)[C@H]2O)cc(C(C)(C)C)c1O	12		
OCC1=C[C@H](NC[C@H](O)[C@@H](O)[C@H](O)[C@H](O)CO)[C@H](O)[C@@H](O)[C@@H]1O	110		
OCC1=C[C@H](NC[C@H](O)[C@@H](O)[C@@H](O)[C@H](O)CO)[C@H](O)[C@@H](O)[C@@H]1O	160		
OCC1=C[C@H](NC(CO)[C@@H](O)[C@H](O)[C@H](O)CO)[C@H](O)[C@@H](O)[C@@H]1O (some centres unmarked)	110		
OCC1=C[C@H](NC[C@@H](O)[C@@H](O)[C@H](O)[C@H](O)CO)[C@H](O)[C@@H](O)[C@@H]1O	100		
OCC1=C[C@H](NC[C@@H](O)[C@H](O)[C@H](O)CO)[C@H](O)[C@@H](O)[C@@H]1O	120		
OCC1=C[C@H](NC[C@H](O)[C@H](O)[C@H](O)CO)[C@H](O)[C@@H](O)[C@@H]1O	90		
OCC1=C[C@H](NC[C@H](O)[C@@H](O)[C@H](O)CO)[C@H](O)[C@@H](O)[C@@H]1O	110		
OCC1=C[C@H](NCc2ccc(Br)cc2)[C@H](O)[C@@H](O)[C@@H]1O		75	
OCC1=C[C@H](NCC(O)COc2ccccc2)[C@H](O)[C@@H](O)[C@@H]1O (some centres unmarked)		24	
OCC1=C[C@H](NC(CO)c2ccccc2)[C@H](O)[C@@H](O)[C@@H]1O (some centres unmarked)		14	

Structure (SMILES)	IC50 [1, 4] [µM]	IC50 [2] [µM]	other results
OCC1=C[C@H](NC(CO)C(O)c2ccccc2)[C@H](O)[C@@H](O)[C@@H]1O (some centres unmarked)		9.6	
OCC1=C[C@H](NCc2ccc(O)c(O)c2)[C@H](O)[C@@H](O)[C@@H]1O		8.1	
CCCCN[C@H]1C=C(CO)[C@@H](O)[C@H](O)[C@H]1O [CH2 CH2 CH2 CH3, N-n-butylvalienamine]	21		
CC(Cc1ccccc1)N[C@H]1C=C(CO)[C@@H](O)[C@H](O)[C@H]1O (stereo partly drawn) [Example 21, N-(α-methylphenethyl)valienamine]			IC50 [1]: 0.13 µM
OCC1=C[C@H](NC2CCCCC2O)[C@H](O)[C@@H](O)[C@@H]1O (some centres unmarked) [Example 36, N-(2-hydroxycyclohexyl)valienamine]			IC50 [3]: 0.17 µM
OCC1=C[C@H](NCCc2ccccc2)[C@H](O)[C@@H](O)[C@@H]1O [drawing 15]	1.8		
OCC1=C[C@H](NCC(O)c2ccccc2)[C@H](O)[C@@H](O)[C@@H]1O (some centres unmarked) [drawing 16]	1.1		
OCC1=C[C@H](NCCCc2ccccc2)[C@H](O)[C@@H](O)[C@@H]1O [drawing 18]	2.2		
OCC1=C[C@H](NCCCCc2ccccc2)[C@H](O)[C@@H](O)[C@@H]1O [drawing 20]	0.98		
OCC1=C[C@H](NCc2ccc(O)cc2)[C@H](O)[C@@H](O)[C@@H]1O [drawing 23]	5		
COc1ccccc1C(O)CN[C@H]1C=C(CO)[C@@H](O)[C@H](O)[C@H]1O (some centres unmarked) [drawing 24]	0.38		
CC(C)=CCC/C(C)=C/CN[C@H]1C=C(CO)[C@@H](O)[C@H](O)[C@H]1O [drawing 27]	1.7		
OCC1=C[C@H](NC(CO)CO)[C@H](O)[C@@H](O)[C@@H]1O [drawing 29]	66		
OCC1=C[C@H](NC(CO)[C@@H](O)[C@H](O)[C@@H](O)CO)[C@H](O)[C@@H](O)[C@@H]1O (some centres unmarked) [drawing 37]	130		
OCC1=C[C@H](NCCc2ccccc2)[C@H](O)[C@@H](O)[C@@H]1O [drawing 38]		11	
OCC1=C[C@H](NCCCc2ccccc2)[C@H](O)[C@@H](O)[C@@H]1O [drawing 39]		20	
OCC1=C[C@H](NCCCCc2ccccc2)[C@H](O)[C@@H](O)[C@@H]1O [drawing 40]		80	
OCC1=C[C@H](NCC(O)c2ccccc2)[C@H](O)[C@@H](O)[C@@H]1O (some centres unmarked) [drawing 41]		3.2	
OCC1=C[C@H](NCc2ccc(O)cc2)[C@H](O)[C@@H](O)[C@@H]1O [drawing 43]		19	
CC(Cc1ccccc1)N[C@H]1C=C(CO)[C@@H](O)[C@H](O)[C@H]1O (some centres unmarked) [drawing 46]		2.4	
COc1ccccc1C(O)CN[C@H]1C=C(CO)[C@@H](O)[C@H](O)[C@H]1O (some centres unmarked) [drawing 47]		3.1	
CC(C)=CCC/C(C)=C/CN[C@H]1C=C(CO)[C@@H](O)[C@H](O)[C@H]1O [drawing 48]		5.2	
OCC1=C[C@H](NC(CO)CO)[C@H](O)[C@@H](O)[C@@H]1O [drawing 49]		14	
OCC1=C[C@H](NC(CO)[C@@H](O)[C@H](O)[C@@H](O)CO)[C@H](O)[C@@H](O)[C@@H]1O (some centres unmarked) [drawing 50]		14	
N[C@H]1C=C(CO)[C@@H](O)[C@H](O)[C@H]1O [valienamine]			action of suppressing the function of α-glucoside hydrolase (α-glucoside hydrolase): possesses a highly valuable action of suppressing the function of α-glucoside hydrolase
